Non-standard residues stand in square brackets, D forms with d. pT = C[C@@H](OP(=O)(O)O)[C@H](N)C(=O)O
Assays:
C/EBPβ+/+ stellate cells = assay: Annexin-V-PE assay of stellate cells treated with lactacystin; format: cell-based, mouse; settings: lactacystin 0-30 μM, 6 hours after treatment began
Procedure: (§1) FIG. 7 provides data showing that phosphorylation of rat C/EBPβ on Ser^105 prevents stellate cell apoptosis. Panel A provides results for mouse stellate cells transfected as described herein (See, FIG. 2), with mutant p90RSK or treated with lactacystin (10 μM) (closed bars), and co-transfected with CMV-rC/EBPβ-Asp^105 (1 μg each) (open bars) as indicated. Annexin-V-PE binding was determined as described for FIG. 2 (P<0.05 for rC/EBPβ-Asp^105). Panel B provides results of an annexin-V-PE assay for stellate cells from C/EBPβ^+/+ (closed circles) and rC/EBPβ-Asp^105 transgenic (open circles) mice treated with lactacystin (0-30 μM). The annexin-V-PE assay was performed 6 hours after treatment began (P<0.05 for rC/EBPβ-Asp^105 transgenic mice for 5-25 μM lactacystin). Panel C provides results for rC/EBPβ-HA constructs (0.3 μg) transfected into rat stellate cells. The expressed peptides were immunoprecipitated with anti-HA antibodies. Using a specific antibody, rCEBPβ-PSer^105 was detected only in cells that expressed wild-type rC/EBPβ. […] Reciprocal immunoprecipitations confirmed these associations. […] Enzyme activity was measured using a colorimetric substrate as described in the Examples. […]

caspase 1 = target: T1, caspase 1 (Homo sapiens, UniProt P29466); assay: In vitro self-activation of recombinant caspase 1; format: biochemical; settings: peptides 200 μM, 2 h, procaspase 1 (1U)
T1 construct: purchased Alexis Biochemicals 201-056
T1 sequence (P29466 120-404): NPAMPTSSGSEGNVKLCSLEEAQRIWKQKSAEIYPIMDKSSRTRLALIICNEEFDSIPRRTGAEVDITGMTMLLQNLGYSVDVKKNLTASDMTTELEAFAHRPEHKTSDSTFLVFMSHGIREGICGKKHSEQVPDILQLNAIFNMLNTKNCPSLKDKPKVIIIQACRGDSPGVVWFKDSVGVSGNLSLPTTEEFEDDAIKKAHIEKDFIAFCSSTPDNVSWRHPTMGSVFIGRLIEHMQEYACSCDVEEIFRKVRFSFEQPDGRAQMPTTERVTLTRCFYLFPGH
Procedure: (§2) FIG. 5 provides results showing the direct association of C/EBPβ-Glu^217 with procaspases 1 and 8. […] Enzyme activity was measured in the absence (control) or presence of C/EBPβ peptides (200 μM) for 2 h, using a procaspases 1 (1U) (not shown) and 8 (0.2 μg) activity assay. Values are presented as the mean±one half the range of duplicates. Panel C provides results for cells cultured on a collagen type I matrix and incubated with the indicated cell permeant, purified synthetic N-acetyl, C-aldehyde C/EBPβ tetra-peptides (10 μM) or with recombinant C/EBPβ-HA peptides as indicated, together with the Chariot reagent (Active Motif) for 4 h. Control cells were incubated without peptides (P<0.05 for all peptides containing Ala^217).
(§3) Purified recombinant C/EBPβ peptides, expressed as known in the art (See, Descombes et al., supra; and Buck et al. (1994), supra), and purified synthetic N-acetyl, C-aldehyde tetrapeptides (200 μM) (American Peptide Company) were assayed for their ability to inhibit the activity of purified human recombinant caspases 1 (catalogue # 201-056) and 8 (catalogue # 201-041-C005) (Alexis Biochemicals). The sequence of caspase 8 includes Ser217 through Asp479 cloned into an expression vector containing a 21 amino acid linker at the N-terminus. Thus, the prodomain (first 220 amino acids) is essentially missing. […] Caspase activity was determined by the release of the p-nitroaniline colorimetric (Alexis Biochemicals) substrate for caspase 1 (catalogue # 260-026) or 8 (catalogue # 260-045) within the linear part of the kinetic assay (Thornberry et al. (1997), supra; Stennicke and Salvesen, supra). […]
To delineate the role of C/EBPβ on the activation of procaspases 1 and 8, the self-activation of recombinant procaspases 1 and 8 was induced in vitro (Wilson et al., supra; Margolin et al., supra; and Earnshaw et al., supra), and the effect of purified recombinant C/EBPβ peptides, produced as described previously (Descombes et al., supra; and Buck et al., (1994), supra) on this process was determined. […]

caspase 8 = target: T2, caspase 8 (Homo sapiens, UniProt Q14790); assay: In vitro self-activation of recombinant caspase 8; format: biochemical; settings: peptides 200 μM, 2 h, procaspase 8 (0.2 μg), colorimetric substrate
T2 construct: 21 amino acid linker (vector-derived) (N); purchased Alexis Biochemicals 201-041-C005
T2 sequence (Q14790 217-479): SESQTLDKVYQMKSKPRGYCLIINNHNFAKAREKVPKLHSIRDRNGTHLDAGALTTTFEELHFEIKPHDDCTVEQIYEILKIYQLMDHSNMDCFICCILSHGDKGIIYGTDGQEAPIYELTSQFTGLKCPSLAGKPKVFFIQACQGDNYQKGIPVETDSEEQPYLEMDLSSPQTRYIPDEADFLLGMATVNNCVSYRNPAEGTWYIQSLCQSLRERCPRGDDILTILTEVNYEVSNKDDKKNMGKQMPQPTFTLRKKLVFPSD
Procedure: as §2, §1
as §3, with “Biochemicals).” for “Biochemicals). The sequence of caspase 8 includes Ser217 through Asp479 cloned into an expression vector containing a 21 amino acid linker at the N-terminus. Thus, the prodomain (first 220 amino acids) is essentially missing.”

hepatic stellate cells = assay: Apoptosis of stellate cells on collagen type I incubated with cell permeant peptides; format: cell-based, mouse; settings: collagen type I matrix, tetrapeptides 10 μM, Chariot reagent, 4 h
Procedure: as §2, with “Ala^217). […]” for “Ala^217).”
Fluorescent labels were observed using a triple-channel fluorescence microscope. […] The number of annexin V (+) cells was determined by in vivo microscopy as known in the art (See, Rudel and Bokoch, supra) among all cells or those expressing the GFP indicator protein either co-transfected with C/EBPβ proteins, or alone. […] At least 1000 cells were analyzed per experimental point, including at least 100 cells expressing the transfected DNA (Buck and Chojkier, EMBO J., 15:1753-1765 (1996); Buck et al., (1994), supra; and Buck et al., (1999), supra). […] Nuclear morphology was analyzed by staining cells with Hoechst 33342 (Molecular Probes). […]

[1] = test system: stellate cells from C/EBPβ−/− mice; assay: Rescue from apoptosis of stellate cells from C/EBPβ−/− mice by cell permeant tetrapeptides; format: cell-based, mouse; settings: C/EBPβ−/− cells activated by collagen type I, tetrapeptides 10 μM, Chariot reagent, 4 hours
procaspase 8 = procaspase 8 (Homo sapiens, UniProt Q14790); settings: cited from earlier work
Chain of procaspase 8 (Q14790 whole entry): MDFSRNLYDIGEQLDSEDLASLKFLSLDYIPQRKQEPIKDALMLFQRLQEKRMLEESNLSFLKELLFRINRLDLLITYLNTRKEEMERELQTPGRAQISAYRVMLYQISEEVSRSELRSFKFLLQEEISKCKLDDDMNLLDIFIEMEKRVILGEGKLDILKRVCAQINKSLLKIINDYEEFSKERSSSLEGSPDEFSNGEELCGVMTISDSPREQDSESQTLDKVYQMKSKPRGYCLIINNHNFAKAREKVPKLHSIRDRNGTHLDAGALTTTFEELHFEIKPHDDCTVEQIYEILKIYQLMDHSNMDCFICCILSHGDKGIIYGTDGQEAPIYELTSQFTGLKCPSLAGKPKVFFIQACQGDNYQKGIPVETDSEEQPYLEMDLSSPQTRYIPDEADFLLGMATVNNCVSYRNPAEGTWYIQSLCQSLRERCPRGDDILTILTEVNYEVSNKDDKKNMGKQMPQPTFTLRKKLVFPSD

[2] = test system: C/EBPβ-Ala^217 stellate cells; assay: Apoptosis of stellate cells from C/EBPβ-Ala^217 transgenic mice, Hoechst 33342 nuclear staining; format: cell-based, mouse; settings: collagen type I; IETD or transfection 1 μg
Procedure: FIG. 2 provides results showing increased apoptosis in hepatic stellate cells from C/EBPβ^−/− and C/EBPβ-Ala^217 transgenic mice. […] Six hours after cultivation, an annexin-V-PE binding assay was performed (P<0.05 for C/EBPβ^−/− and C/EBPβ-Ala^217). […] Apoptotic cells are indicated with arrowheads.
Fluorescent labels were observed using a triple-channel fluorescence microscope. The fluorochromes utilized were FITC and Texas red (Molecular Probes). The number of annexin V (+) cells was determined by in vivo microscopy as known in the art (See, Rudel and Bokoch, supra) among all cells or those expressing the GFP indicator protein either co-transfected with C/EBPβ proteins, or alone. These values are reported herein as a percentage of annexin V (+) for cells expressing the transfected DNA. At least 1000 cells were analyzed per experimental point, including at least 100 cells expressing the transfected DNA (Buck and Chojkier, EMBO J., 15:1753-1765 (1996); Buck et al., (1994), supra; and Buck et al., (1999), supra). […] Nuclear morphology was analyzed by staining cells with Hoechst 33342 (Molecular Probes). […]

## CC(=O)N[C@@H](CSC(=O)[C@]1([C@@H](O)C(C)C)NC(=O)[C@H](C)[C@@H]1O)C(=O)O [Lactacystin, lactacystin]
C/EBPβ+/+ stellate cells
  Stellate cell apoptosis: significant and rapid increase

## Ac-K-Phospho-T^217VD-CHO (Ac-K[pT]VD-aldehyde; SMILES CC(=O)N[C@@H](CCCCN)C(=O)N[C@H](C(=O)N[C@H](C(=O)N[C@H](C=O)CC(=O)O)C(C)C)[C@@H](C)OP(=O)(O)O) [synthetic N-acetyl, C-aldehyde C/EBPβ 216-219-PThr^217 tetrapeptide]
Caspase 1
  Inhibition of in vitro self-activation of caspase 1: inhibited the in vitro self-activation
Caspase 8
  Inhibition of in vitro self-activation of caspase 8: inhibited the in vitro self-activation

## Ac-KA^217VD-CHO
Hepatic stellate cells
  Induction of apoptosis of stellate cells: induced apoptosis

## Ac-KE^217VD-CHO (Ac-KEVD-aldehyde; SMILES CC(=O)N[C@@H](CCCCN)C(=O)N[C@@H](CCC(=O)O)C(=O)N[C@H](C(=O)N[C@H](C=O)CC(=O)O)C(C)C) [cell permeant synthetic N-acetyl, C-aldehyde tetrapeptide, phosphorylation mimic domain of C/EBPβ]
Caspase 1
  Inhibition of in vitro self-activation of caspase 1: inhibited the in vitro self-activation
Caspase 8
  Inhibition of in vitro self-activation of caspase 8: inhibited the in vitro self-activation
[1]
  Rescue of stellate cells from apoptosis: rescued these cells from apoptosis

## Ac-KKPD^105-CHO (Ac-KKPD-aldehyde; SMILES CC(=O)N[C@@H](CCCCN)C(=O)N[C@@H](CCCCN)C(=O)N1CCC[C@H]1C(=O)N[C@H](C=O)CC(=O)O) [cell permeant synthetic N-acetyl, C-aldehyde tetrapeptide, phosphorylation mimic domain of rC/EBPβ]
Caspase 8
  Inhibition of in vitro self-activation of caspase 8: inhibited the in vitro self-activation
[1]
  Rescue of stellate cells from apoptosis: rescued these cells from apoptosis

## DEVD-CHO
Procaspase 8
  Ki: 0.012 µM

## IETD [reference compound]
[2]
  Block of apoptosis of C/EBPβ-Ala^217 stellate cells: blocked
